Reference: patent publication US9616053B2, “Indolin-2-one or pyrrolo-pyridin/pyrimidin-2-one derivatives” (Hoffmann-La Roche Inc., priority 2013, dated 2017)

System: L-687,414-induced hyperlocomotion
Test: L-687,414-induced hyperlocomotion (Digiscan locomotor activity)
Format: in vivo, mouse
Conditions: Mus musculus; dose ip 20 mg/kg, at the same time as s.c. 50 mg/kg L-687,414; mice
Source text: The authors described that hyperlocomotion induced by L-687,414 was inhibited by a series of known antipsychotic drugs. […] These findings predict antipsychotic activity for the present compounds, making them useful for the treatment of positive (psychosis) and negative symptoms of schizophrenia, substance abuse, alcohol and drug addiction, obsessive-compulsive disorders, cognitive impairment, bipolar disorders, mood disorders, major depression, resistant depression, anxiety disorders, Alzheimer's disease, autism, Parkinson's disease, chronic pain, borderline personality disorder, sleep disturbances, chronic fatigue syndrome, stiffness, antiinflammatory effects in arthritis and balance problems.
The described compounds of formula I reduce L-687,414-induced hyperlocomotion. This was assessed by using a computerized Digiscan 16 Animal Activity Monitoring System (Omnitech Electronics, Columbus, Ohio) to quantify locomotor activity. Animals were kept under a 12 h light/dark cycle and experiments were performed during the light period. Each activity monitoring chamber consisted of a Plexiglas box (41×41×28 cm; W×L×H) with sawdust bedding on the floor surrounded by invisible horizontal and vertical infrared sensor beams. The test boxes were divided by a Plexiglas cross providing each mouse with 20×20 cm of moving space. Cages were connected to a Digiscan Analyzer linked to a computer that constantly collected the beam status information. Records of photocell beam interruptions for individual animals were taken every 5 min over the duration of the experimental session and the sum of the first 6 periods was used as the final parameter. Compounds were administered either p.o. 15 min before a s.c. injection of 50 mg/kg of L-687,414, or i.p. at the same time as a s.c. injection of 50 mg/kg of L-687,414. Mice were then transferred from their home cage to the recording chambers for a 15-min habituation phase allowing free exploration of the new environment. Horizontal activity was then recorded for a 30-min time period. The % inhibition of L-687,414-induced hyperlocomotion was calculated according to the equation: ((Veh+L-687,414 horizontal activity−drug+L-687,414 horizontal activity)Veh+L-687,414 horizontal activity)×100
ID50 values, defined as doses of each compound producing 50% inhibition of L-687,414-induced hyperlocomotion, were calculated by linear regression analysis of a dose-response data using an Excel-based computer-fitting program.
As data was not presupposed to be normally distributed, groups treated with test compounds were statistically compared with the control (vehicle-treated) group using one-tailed Mann Whitney U tests. In statistics, the Mann-Whitney Utest (also called the Mann-Whitney-Wilcoxon (MWW) or Wilcoxon rank-sum test) is a non-parametric statistical hypothesis test for assessing whether one of two samples of independent observations tends to have larger values than the other. It is one of the most well-known non-parametric significance tests. […] P values given in table 1 are one-tailed since only decreases in locomotion were expected and tested for (Mann, H. B., Whitney, D. R. (1947), “On a Test of Whether one of Two Random Variables is Stochastically Larger than the Other”, Annals of Mathematical Statistics, 18 (1), 50-60).

Structure (SMILES) | inhibition at 20 mg/kg [%]
CN1C(=O)C(C)(C)c2ccc(-c3ccc(C4CC4)nn3)cc21 [Example 79, 6-(6-Cyclopropylpyridazin-3-yl)-1,3,3-trimethyl-indolin-2-one] | 62.5

Same assay, conditions: Mus musculus; dose ip 30 mg/kg, at the same time as s.c. 50 mg/kg L-687,414; mice

Structure (SMILES) | inhibition at 30 mg/kg [%]
Cc1ncc(-c2ccc3c(c2)N(CC2COC2)C(=O)C3(C)C)cn1 [Example 129, 3,3-Dimethyl-6-(2-methylpyrimidin-5-yl)-1-(oxetan-3-ylmethyl)indolin-2-one] | 95.5
Cc1cc(-c2cc3c(cn2)C(C)(C)C(=O)N3C)ccn1 [Example 83, 1,3,3-Trimethyl-6-(2-methyl-4-pyridyl)pyrrolo[3,2-c]pyridin-2-one] | 53
CCc1ncncc1-c1ccc2c(c1)N(C)C(=O)C2(C)C [Example 14, 6-(4-Ethylpyrimidin-5-yl)-1,3,3-trimethylindolin-2-one] | 66.4
Cn1cc(-c2ccc3c(c2)NC(=O)C3(C)C)cn1 [Example 87, 3,3-Dimethyl-6-(1-methyl-1H-pyrazol-4-yl)indolin-2-one] | 82.8
CC1(C)C(=O)Nc2cc(-c3cnc(N)nc3)ccc21 [Example 16, 6-(2-Aminopyrimidin-5-yl)-3,3-dimethylindolin-2-one] | 89.4
Cc1cnccc1-c1ccc2c(c1)NC(=O)C2(C)C [Example 20, 3,3-Dimethyl-6-(3-methylpyridin-4-yl)indolin-2-one] | 47.5
Cc1noc(-c2ccc3c(c2)N(C)C(=O)C3(C)C)n1 [Example 59, 1,3,3-Trimethyl-6-(3-methyl-1,2,4-oxadiazol-5-yl)indolin-2-one] | 45.2
CC1(C)C(=O)Nc2cc(-n3cnc(C(O)C(F)(F)F)c3)ccc21 (stereo not drawn) [Example 168, 3,3-Dimethyl-6-[4-(2,2,2-trifluoro-1-hydroxy-ethyl)imidazol-1-yl]indolin-2-one] | 77
Cc1c(-c2cccnc2)ccc2c1N(C)C(=O)C2(C)C [Example 36, 1,3,3,7-Tetramethyl-6-(pyridin-3-yl)indolin-2-one] | 79.3
Cc1nnc(-c2ccc3c(c2)NC(=O)C3(C)C)o1 [Example 106, 3,3-Dimethyl-6-(5-methyl-1,3,4-oxadiazol-2-yl)indolin-2-one] | 75.7
COCC(CN1C(=O)C(C)(C)c2ccc(-c3cnc(C)nc3)cc21)OC (stereo not drawn) [Example 175, 1-(2,3-dimethoxypropyl)-3,3-dimethyl-6-(2-methylpyrimidin-5-yl)indolin-2-one] | 95.3
Cc1ncc(-c2ccc3c(c2)N(CC2CCC2)C(=O)C3(C)C)cn1 [Example 48, 1-(Cyclobutylmethyl)-3,3-dimethyl-6-(2-methylpyrimidin-5-yl)indolin-2-one] | 68.6
Cc1ncccc1-c1ccc2c(c1)NC(=O)C2(C)C [Example 19, 3,3-Dimethyl-6-(2-methylpyridin-3-yl)indolin-2-one] | 61.6

Same assay, conditions: dose producing 50% inhibition of L-687,414-induced hyperlocomotion; p.o. 15 min before s.c. 50 mg/kg L-687,414; mice

Structure (SMILES) | ID50 po [mg/kg]
CN1C(=O)C(C)(C)c2ccc(-c3cnc4c(c3)NCCO4)cc21 [Example 25, 6-(2,3-Dihydro-1H-pyrido[2,3-b][1,4]oxazin-7-yl)-1,3,3-trimethylindolin-2-one] | 3.03
